Laboratory results published in patent publication US20060135569A1, “Use of benzisoselenazolone compounds against ischemic myocardial damage” (priority 2002, published 2006).
Marks after values point to notes of the source that are not given here.

Legend:
TA100 = assay: Ames test, strain TA100; assay type: cell-based
Description: (§1) To assess the mutagenic effects of 5 compounds (IMM-004; IMM-065; IMM-127; IMM-128; IMM-313), the Ames test was performed in 4 strains (TA97; TA98; TA100; TA102). The experiment was conducted with compounds at 4 concentration levels (0.5, 5, 50 and 500 μg/dish). […]

[1] = tested on: arrhythmia caused by ischemia/reperfusion insults in anaesthetic rats; assay: Ischemia/reperfusion arrhythmia in anaesthetic rats, intravenous injection; assay type: in vivo, rat
Description: (1) Protective Effects of the Tested Compounds on Myocardial Insults in Rats after Intravenously Injection
Arrhythmic potency induced by myocardial insults was used to assess the potential protective effect of the compounds.

TA97; TA98; TA100; TA102 = assay: Ames (mutagenesis) test, overall result in 4 strains; assay type: cell-based; settings: 0.5, 5, 50 and 500 μg/dish
Description: as §1

Na^+/Ca^2+ exchanger = target: T1, Na^+/Ca^2+ exchanger (Cavia porcellus, UniProt P48766); assay: Na^+/Ca^2+ exchange current (INa—Ca), whole-cell patch clamp, intracellular Na^+ overload cell model; assay type: cell-based, guinea pig
T1 construct: endogenous in cells; host or cells: freshly isolated guinea pig ventricular myocytes
Description: 1. Establishment of Assaying Method for Biphasical Current Detection in Na^+/Ca^2+ Exchange System
Since the reverse mode of Na^+/Ca^2+ exchange process is one of the main mechanisms involving in ischemia/reperfusion insult, it is of great importance to establish cell model represented reverse mode Na^+/Ca^2+ exchange process for the development of drugs against ischemic injury. Therefore, we successfully established cell model of reverse mode Na^+/Ca^2+ exchange system by intracellular Na^+ dialysis technique, and recorded Na^+/Ca^2+ exchange currents by patch clamp experiment.
Internal solution contained certain concentration of NaCl was filled to the microcatheter, and ion exchange process between the cellular and internal solutions was conducted after whole cell currents were recorded by patch clamp. Na^+ contained in the internal solution was dialyzed into the cell; result in the high intracellular Na^+ concentration. After that, the cell was champed at a holding potential of −40 mV, then depolarized to +60 mV and followed by a conversely declining ramp stimuli at a speed of 80 mV·s^−1 and 2 s conditioning pulse, then repolarized to −100 mV with a frequency of 0.05 Hz. Under the stimulation protocol, current from outward to the inward direction was recorded by perfusing modified biphasical Tyrode solution (in which the outward and inward currents can be recorded simultaneously) with the addition of 1 mmol·L^−1 of BaCl2 and 2 mmol·L^−1 of CsCl to block K^+ channels, 1 μmol·L^−1 of verapamil to block L-type Ca^2+ channels, and 20 μmol·L^−1 of ouabain to block Na^+/K^+ ATPase, and 20 mmol·L^−1 of TEA to block potassium channels. The recorded inward currents were presented in a linear manner owing to the blockade of other time-dependent currents. With the increase of intracellular Na^+ level and prolongation of time, the reverse mode of Na^+/Ca^2+ exchange process was activated. […] Under such experimental conditioning, the maximum reverse mode current was recorded 3 min after cell crushed. No significant “run-down” was observed within the record period of 8 minutes. The inward and outward current were inhibited by 5 mmol·L^−1 of Ni^2+ treatment, and the experiment result in two current-voltage curves in the absence or presence of Ni^2+. The Ni^2+ sensitive current, also called electrophysiological Na^+/Ca^2+ exchange current (INa·Ca), was the minus result of two current-voltage curves. The reverse mode potential of INa—Ca was about −20 mV
Male guinea pigs weighting 250˜280 g provided by the Animal Center of the Chinese Academy of Medical Sciences were hammered and sacrificed. The chest was opened and the heart was removed quickly. Fatty tissue and pericardium were removed in a Ca^2+-free solution at 4° C., and heart was sequentially mounted on a Langendorff apparatus. First, the heart was perfused conversely via the aorta for 6 min with Ca^2+-free solution in order to wash out residual blood, then the heart expands and the color of it turns to pink. Then the heart was perfused with Ca^2+-free solution containing 0.1 mg/ml of pronase E, 0.5 mg/ml defatted bovine serum albumin (BSA) and 150 μM Ca^2+ for 2˜3 min, until the heart expanded and became soft. The atrium was removed, and the digested heart was minced with scissors, stirred in a beaker at 37° C. for 5˜10 min. The supernatant was diluted with Ca^2+-free solution containing 0.5 mg/ml BSA and 1.8 mM Ca^2+. The supernatant was placed at room temperature (20˜24° C.) for 1 hr and then subjected to the experiment. During the whole perfusion period, pressure was kept at 70 cmH2O and the temperature of solution was kept at 37° C. with continuously gassed with 95% O2 and 5% CO2.
Rod-shaped cells with clear striations and intact membrane were used. […]

TA102 = assay: Ames test, strain TA102; assay type: cell-based
Description: as §1

TA98 = assay: Ames test, strain TA98; assay type: cell-based
Description: as §1

[2] = tested on: isolated rat hearts subjected to ischemia-reperfusion (I/R); assay: Isolated heart subjected to ischemia/reperfusion injury (arrhythmia)
Description: Based on the pre-electrophysiological cell model screening, we have compared the inhibition ratios of the outward current by reverse-transportation of Na^+/Ca^2+ exchange, and further in vitro tests on isolated rat hearts subjected to ischemia-reperfusion (I/R) were conducted. Prolongation of ventricular arrhythmic, incidence rate of ventricular extrasystole, ventricular tachycardia/ventricular fibrillation (VT/VF) were recorded to evaluate the protective actions of drugs on myocardial injury.
On the basis of above screening results obtained from electrophysiological studies, and the result from comparative study on the research of the inhibitory effect of compounds on reverse mode Na^+/Ca^2+ exchange process, 7 effective compounds were subjected to in vitro study. Among which, IMM-313, IMM-004 and IMM-132 have structures containing chlorine; IMM-127, IMM-128 and IMM-129 have structures containing fluorine; and IMM-065 has a structure containing OH. The experiment performed in the isolated heart subjected to ischemia/reprefusion insult. Prolongation of ventricular arrhythmic, incidence of ventricular extrasystole, ventricular tachycardia/ventricular fibrillation (VT/VF) were recorded in order to evaluate the protective actions of drugs on myocardial injury.

TA97 = assay: Ames test, strain TA97; assay type: cell-based
Description: as §1

[3] = Example 1 table, myocardial cell
[4] = screening of 22 candidate compounds
[5] = 10^−6 M, isolated heart ischemia/reperfusion

## O=c1c2ccc(Cl)cc2[se]n1-c1ccncc1 [IMM-313, 6-chloro-2-(4-pyridyl)-1,2-benz-isoselenazol-3(2H)-one]
TA100; 0.5 μg/dish
  TA100 +S9: 99.33 ± 2.49
  TA100 −S9: 68.67 ± 17.33
TA100; 5 μg/dish
  TA100 +S9: 111.33 ± 7.71
  TA100 −S9: 45.67 ± 6.65
TA100; 50 μg/dish
  TA100 +S9: 106.00 ± 7.48
  TA100 −S9: 0
TA100; 500 μg/dish
  TA100 +S9: 0
  TA100 −S9: 16.5 ± 0.5
[1]; 3 mg/Kg intravenous (femoral vein), rats
  incidence and duration of VT, VF, VE / ventricular arrhythmic: no significant effect
[1]; 3 mg/Kg intravenous, before ligation, 7/17 rats
  rats with heart rate irreversibly reduced within 5 min (died at last): 41.2%
TA97; TA98; TA100; TA102
  mutagenic effect (Ames test): No evidence for a mutagenic effect
Na^+/Ca^2+ exchanger; [3]
  Inhibitory rate of inward INa—Ca (%): 28%
  Inhibitory rate of outward INa—Ca (%): 50%
Na^+/Ca^2+ exchanger; [4]
  Inhibitory rate of inward INa—Ca (%): 28%
  Inhibitory rate of outward INa—Ca (%): 50* %
TA102; 0.5 μg/dish
  TA102 +S9: 250.00 ± 10.00
  TA102 −S9: 215.33 ± 13.91
TA102; 5 μg/dish
  TA102 +S9: 220.00 ± 28.00
  TA102 −S9: 211.33 ± 18.35
TA102; 50 μg/dish
  TA102 +S9: 265.33 ± 15.43
  TA102 −S9: 0
TA102; 500 μg/dish
  TA102 +S9: 0
  TA102 −S9: 177.67 ± 23.33
TA98; 0.5 μg/dish
  TA98 +S9: 49.33 ± 3.86
  TA98 −S9: 100.50 ± 3.50
TA98; 5 μg/dish
  TA98 +S9: 50.33 ± 5.79
  TA98 −S9: 86.50 ± 5.50
TA98; 50 μg/dish
  TA98 +S9: 47.33 ± 1.25
  TA98 −S9: 0
TA98; 500 μg/dish
  TA98 +S9: 0
  TA98 −S9: 87.67 ± 5.25
[2]; 10^−6M, isolated heart
  protective effects on myocardial insults: significant protective effects
[2]; [5]
  AAT: arrhythmic occurrence time, Time: 1.67 ± 0.70 min
  VF (ventricular fibrillation) Incidence rate (%): 30* %
  VPS (ventricular premature beats) Incidence rate (%): 20* %
  VT (ventricular tachycardia) Incidence rate (%): 30%
TA97; 0.5 μg/dish
  TA97 +S9: 64.67 ± 8.65
  TA97 −S9: 47.33 ± 6.13
TA97; 5 μg/dish
  TA97 +S9: 70.33 ± 4.11
  TA97 −S9: 38.33 ± 13.09
TA97; 50 μg/dish
  TA97 +S9: 60.00 ± 7.12
  TA97 −S9: 0
TA97; 500 μg/dish
  TA97 +S9: 0
  TA97 −S9: 33.33 ± 13.59
